This experiment has as its target purified human, His-tagged PRC2 complex (Homo sapiens (Human), UniProt O75530). Nature of the experiment: Hot Spot HMT assay, inhibition of PRC2 enzymatic activity. The class given is biochemical. The settings on record: 10 nM PRC2 complex, 1 μM 3H-SAM, core histone H3, 10-point dose-response. The text has this:
The assay uses purified human, His-tagged PRC2 complex, including N-terminal His-tagged EZH2 enzyme, N-terminal Flag-tagged embryonic ectoderm development protein (EED), N-terminal His-tagged suppressor of zeste 12 (SUZ12), N-terminal His-tagged AEBP2, and N-terminal His-tagged RbAp48. In this assay, the transfer of the tritiated methyl group from radiolabeled S-adenosyl methionine (SAM) to purified core histone protein by EZH2 is quantitated after filtration to determine the activity of the core PRC2 complex in the presence and absence of compound.
The initial starting concentration for the serial dilutions of each compound was 1.0 μM. […] SAH (S-(5-adenosyl)-L-homocysteine) was used as a positive control for assay validation.
An aliquot of each serial dilution of test compound was added to deep 384 well plate using Acoustic Technology instrument (Echo 550, LabCyte) containing reaction buffer (50 mM Tris-HCl (pH 8.)), 0.01% Brij35, 1 mM EDTA, 1 mM DTT, 1 mM PMSF and 1% DMSO), 10 nM purified PRC2 complex and 0.05 mg/ml core histone H3 in a 5 μl volume. The reaction was mixed gently and then pre-incubated for 20 min at 30° C. The enzymatic reaction was initiated by adding 1 μM S-Adenosyl-L-[methyl-^3H]methionine and incubated for 1 hr at 30° C. After 1 hr, the reaction product was detected using a filter binding method and the amount of tritiated H3 core histone was quantitated using a scintillation counter. […] Key: A=<100 nM; B=>100 nM-<500 nM; and C=>500 nM.
purified human, His-tagged PRC2 complex, sequence (O75530 whole entry): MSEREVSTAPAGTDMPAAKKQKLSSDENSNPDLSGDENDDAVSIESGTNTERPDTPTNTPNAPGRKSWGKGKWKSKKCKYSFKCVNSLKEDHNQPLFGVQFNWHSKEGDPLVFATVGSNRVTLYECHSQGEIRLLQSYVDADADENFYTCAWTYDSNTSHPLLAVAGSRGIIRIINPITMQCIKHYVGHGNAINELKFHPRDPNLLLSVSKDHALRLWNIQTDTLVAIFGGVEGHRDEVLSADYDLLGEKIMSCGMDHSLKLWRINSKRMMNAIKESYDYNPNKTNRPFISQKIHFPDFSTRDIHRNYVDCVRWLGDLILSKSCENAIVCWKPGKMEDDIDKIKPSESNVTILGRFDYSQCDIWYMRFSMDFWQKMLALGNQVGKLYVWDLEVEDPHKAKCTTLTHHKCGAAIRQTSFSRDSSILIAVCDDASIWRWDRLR
purified human, His-tagged PRC2 complex, sequence (Q15910 whole entry partner): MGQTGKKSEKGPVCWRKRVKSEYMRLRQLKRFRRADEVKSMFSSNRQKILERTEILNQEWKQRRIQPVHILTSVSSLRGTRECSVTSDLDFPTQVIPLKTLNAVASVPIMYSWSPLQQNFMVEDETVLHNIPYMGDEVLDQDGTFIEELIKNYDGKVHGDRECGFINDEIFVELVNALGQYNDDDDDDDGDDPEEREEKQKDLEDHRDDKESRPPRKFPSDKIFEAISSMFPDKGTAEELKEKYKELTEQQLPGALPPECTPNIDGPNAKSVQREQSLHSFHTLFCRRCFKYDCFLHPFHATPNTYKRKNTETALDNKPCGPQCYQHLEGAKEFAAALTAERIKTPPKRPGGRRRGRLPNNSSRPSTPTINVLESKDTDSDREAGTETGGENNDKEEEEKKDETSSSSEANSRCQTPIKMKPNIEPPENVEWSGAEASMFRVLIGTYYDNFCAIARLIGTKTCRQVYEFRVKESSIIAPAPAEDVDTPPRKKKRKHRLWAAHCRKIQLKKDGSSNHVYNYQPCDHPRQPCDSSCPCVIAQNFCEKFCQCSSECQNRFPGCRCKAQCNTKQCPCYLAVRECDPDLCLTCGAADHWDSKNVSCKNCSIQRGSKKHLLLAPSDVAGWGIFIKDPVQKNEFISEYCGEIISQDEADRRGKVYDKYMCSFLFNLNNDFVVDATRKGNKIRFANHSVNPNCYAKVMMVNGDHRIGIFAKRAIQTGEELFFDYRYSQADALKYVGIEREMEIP
purified human, His-tagged PRC2 complex, sequence (Q15022 whole entry partner): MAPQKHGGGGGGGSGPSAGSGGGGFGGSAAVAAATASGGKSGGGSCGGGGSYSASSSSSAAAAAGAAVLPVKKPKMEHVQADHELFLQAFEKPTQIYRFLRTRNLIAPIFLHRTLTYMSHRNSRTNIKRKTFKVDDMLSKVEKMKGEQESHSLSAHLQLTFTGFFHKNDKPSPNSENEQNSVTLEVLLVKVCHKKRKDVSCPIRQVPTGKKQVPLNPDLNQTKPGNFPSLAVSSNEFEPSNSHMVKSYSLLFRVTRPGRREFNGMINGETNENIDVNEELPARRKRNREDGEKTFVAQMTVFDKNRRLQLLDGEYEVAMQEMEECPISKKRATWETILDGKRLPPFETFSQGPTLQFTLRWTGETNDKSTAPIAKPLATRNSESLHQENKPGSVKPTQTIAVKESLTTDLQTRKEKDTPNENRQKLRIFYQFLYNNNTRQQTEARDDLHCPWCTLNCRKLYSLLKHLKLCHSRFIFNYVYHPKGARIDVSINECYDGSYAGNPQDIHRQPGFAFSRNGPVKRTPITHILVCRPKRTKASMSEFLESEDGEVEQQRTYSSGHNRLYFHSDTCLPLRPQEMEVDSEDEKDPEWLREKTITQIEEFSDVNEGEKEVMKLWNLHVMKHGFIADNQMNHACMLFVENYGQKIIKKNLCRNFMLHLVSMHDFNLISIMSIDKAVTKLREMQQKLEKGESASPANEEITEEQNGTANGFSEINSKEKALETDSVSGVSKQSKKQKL
purified human, His-tagged PRC2 complex, sequence (Q6ZN18 whole entry partner): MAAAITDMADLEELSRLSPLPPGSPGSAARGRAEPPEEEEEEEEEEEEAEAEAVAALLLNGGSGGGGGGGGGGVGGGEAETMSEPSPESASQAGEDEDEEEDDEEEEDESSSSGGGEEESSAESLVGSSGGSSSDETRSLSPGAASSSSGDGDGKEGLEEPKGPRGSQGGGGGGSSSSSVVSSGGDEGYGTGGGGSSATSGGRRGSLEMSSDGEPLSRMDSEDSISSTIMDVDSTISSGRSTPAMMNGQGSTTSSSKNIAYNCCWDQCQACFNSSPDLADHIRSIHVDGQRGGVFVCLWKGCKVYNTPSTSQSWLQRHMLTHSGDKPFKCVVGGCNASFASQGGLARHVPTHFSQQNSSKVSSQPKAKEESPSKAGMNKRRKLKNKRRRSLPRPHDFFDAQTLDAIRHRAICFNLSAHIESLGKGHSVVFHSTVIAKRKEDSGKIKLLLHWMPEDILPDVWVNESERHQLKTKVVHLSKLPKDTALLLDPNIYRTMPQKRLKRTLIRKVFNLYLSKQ
purified human, His-tagged PRC2 complex, sequence (Q09028 whole entry partner): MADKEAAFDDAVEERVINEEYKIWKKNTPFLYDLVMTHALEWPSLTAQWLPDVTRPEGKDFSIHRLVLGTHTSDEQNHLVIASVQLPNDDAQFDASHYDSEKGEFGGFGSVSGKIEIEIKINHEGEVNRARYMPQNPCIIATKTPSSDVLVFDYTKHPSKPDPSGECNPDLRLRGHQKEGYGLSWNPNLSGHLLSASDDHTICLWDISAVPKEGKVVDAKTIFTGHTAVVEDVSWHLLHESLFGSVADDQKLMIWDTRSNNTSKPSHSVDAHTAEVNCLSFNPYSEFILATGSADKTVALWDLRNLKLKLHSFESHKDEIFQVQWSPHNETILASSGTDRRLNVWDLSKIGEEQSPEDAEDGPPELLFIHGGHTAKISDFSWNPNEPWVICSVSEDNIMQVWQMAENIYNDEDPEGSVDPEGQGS
Turning to `N#Cc1cn2c(NCc3c(F)ccc4c3CCO4)ncc(-c3cnn(CCO)c3)c2n1` [Example 182, 5-(((5-fluoro-2,3-dihydrobenzofuran-4-yl)methyl)amino)-8-(1-(2-hydroxyethyl)-1H-pyrazol-4-yl)imidazo[1,2-c]pyrimidine-2-carbonitrile], the IC50 (as a rule, the concentration that inhibits the measured activity by half) lay in the range of 100 to 500 nM.

For `Cc1cc(-c2cnc(NCc3c(F)ccc4c3C(O)CO4)n3cc(C#N)nc23)n(C)n1` (stereo not drawn) [Example 155, 8-(1,3-dimethyl-1H-pyrazol-5-yl)-5-(((5-fluoro-3-hydroxy-2,3-dihydrobenzofuran-4-yl)methyl)amino)imidazo[1,2-c]pyrimidine-2-carbonitrile], the half-maximal inhibitory concentration (IC50) is less than 100 nM.

`CNCc1ccc(-c2cnc(NCc3c(F)ccc4c3CCO4)n3cc(C#N)nc23)cc1F` [Example 197, 5-(((5-fluoro-2,3-dihydrobenzofuran-4-yl)methyl)amino)-8-(3-fluoro-4-((methylamino)methyl)phenyl)imidazo[1,2-c]pyrimidine-2-carbonitrile] gave an IC50 of less than 100 nM.

As to `Cc1nc(N2CCOCC2)ccc1-c1cnc(NCc2c(F)ccc3c2CCO3)n2cc(C#N)nc12` [Example 56, 5-(((5-fluoro-2,3-dihydrobenzofuran-4-yl)methyl)amino)-8-(2-methyl-6-morpholinopyridin-3-yl)imidazo[1,2-c]pyrimidine-2-carbonitrile], the half-maximal inhibitory concentration (IC50) was less than 100 nM.

For the compound `Cn1nc(C(=O)O)cc1-c1cnc(NCc2c(F)ccc3c2CCO3)n2cc(C#N)nc12` [Example 157, 5-(2-cyano-5-(((5-fluoro-2,3-dihydrobenzofuran-4-yl)methyl)amino)imidazo[1,2-c]pyrimidin-8-yl)-1-methyl-1H-pyrazole-3-carboxylic acid], the IC50 was less than 100 nM.

Take `Cc1cncc(-c2cnc(NCc3c(F)ccc4c3CCO4)n3cc(C#N)nc23)c1` [Example 96, 5-(((5-fluoro-2,3-dihydrobenzofuran-4-yl)methyl)amino)-8-(5-methylpyridin-3-yl)imidazo[1,2-c]pyrimidine-2-carbonitrile]: the half-maximal inhibitory concentration (IC50) was less than 100 nM.

Compound `N#Cc1cn2c(NCc3c(F)ccc4c3CCO4)ncc(-c3ccnn3CCO)c2n1` [Example 231, 5-(((5-fluoro-2,3-dihydrobenzofuran-4-yl)methyl)amino)-8-(1-(2-hydroxyethyl)-1H-pyrazol-5-yl)imidazo[1,2-c]pyrimidine-2-carbonitrile] showed an IC50 of 100 to 500 nM.

In turn, `N#Cc1cc(-c2cnc(NCc3c(F)ccc4c3CCO4)n3cc(C#N)nc23)ccn1` [Example 188, 8-(2-cyanopyridin-4-yl)-5-(((5-fluoro-2,3-dihydrobenzofuran-4-yl)methyl)amino)imidazo[1,2-c]pyrimidine-2-carbonitrile] returned a 50% inhibitory concentration (IC50) of 100 to 500 nM.

The compound `CN1CCN(C(=O)c2ccc(-c3cnc(NCc4c(F)ccc5c4CCO5)n4cc(C#N)nc34)cc2)CC1` [Example 115, 5-(((5-fluoro-2,3-dihydrobenzofuran-4-yl)methyl)amino)-8-(4-(4-methylpiperazine-1-carbonyl)phenyl)imidazo[1,2-c]pyrimidine-2-carbonitrile] yielded an IC50 of less than 100 nM.

With `COc1cc(C)c(-c2cnc(NCc3c(F)ccc4c3CCO4)n3cc(C#N)nc23)cn1` [Example 24, 5-(((5-fluoro-2,3-dihydrobenzofuran-4-yl)methyl)amino)-8-(6-methoxy-4-methylpyridin-3-yl)imidazo[1,2-c]pyrimidine-2-carbonitrile], the concentration for half-maximal inhibition (IC50) was in the range of 100 to 500 nM.

`Cc1cc(CN(C)C)ncc1-c1cnc(NCc2c(F)ccc3c2CCO3)n2cc(C#N)nc12` [Example 195, 8-(6-((dimethylamino)methyl)-4-methylpyridin-3-yl)-5-(((5-fluoro-2,3-dihydrobenzofuran-4-yl)methyl)amino)imidazo[1,2-c]pyrimidine-2-carbonitrile] came in with a concentration for half-maximal inhibition (IC50) of less than 100 nM.

With `[2H]C([2H])(Nc1ncc(-c2ccc(CN(C)C)cc2)c2nc(C#N)cn12)c1c(F)ccc2c1CCO2` [Example 165, 8-(4-((dimethylamino)methyl)phenyl)-5-(((5-fluoro-2,3-dihydrobenzofuran-4-yl)methyl-d2)amino)imidazo[1,2-c]pyrimidine-2-carbonitrile], the IC50 is less than 100 nM.

The compound `CN(C)Cc1ccc(-c2cnc(NCc3c(F)ccc4c3CCO4)n3cc(C#N)nc23)c(C#N)c1` [Example 198, 8-(2-cyano-4-((dimethylamino)methyl)phenyl)-5-(((5-fluoro-2,3-dihydrobenzofuran-4-yl)methyl)amino)imidazo[1,2-c]pyrimidine-2-carbonitrile] gave an IC50 of less than 100 nM.

In the case of `N#Cc1cn2c(NCc3c(F)ccc4c3CCO4)ncc(-c3cccnc3C(F)F)c2n1` [Example 64, 8-(2-(difluoromethyl)pyridin-3-yl)-5-(((5-fluoro-2,3-dihydrobenzofuran-4-yl)methyl)amino)imidazo[1,2-c]pyrimidine-2-carbonitrile], the IC50 is less than 100 nM.

For the compound `Cc1nn(C[C@H](C)O)c(C)c1-c1cnc(NCc2c(F)ccc3c2CCO3)n2cc(C#N)nc12` [Example 65, (S)-5-(((5-fluoro-2,3-dihydrobenzofuran-4-yl)methyl)amino)-8-(1-(2-hydroxypropyl)-3,5-dimethyl-1H-pyrazol-4-yl)imidazo[1,2-c]pyrimidine-2-carbonitrile], the IC50 was in the range of 100 to 500 nM.

As for `Cc1ncc(F)cc1-c1cnc(NCc2c(F)ccc3c2CCO3)n2cc(C#N)nc12` [Example 62, 5-(((5-fluoro-2,3-dihydrobenzofuran-4-yl)methyl)amino)-8-(5-fluoro-2-methylpyridin-3-yl)imidazo[1,2-c]pyrimidine-2-carbonitrile], the IC50 is less than 100 nM.

The compound `N#Cc1cn2c(NCc3c(F)ccc4c3CCO4)ncc(-c3ccc(C4CCCN4)cc3)c2n1` (stereo not drawn) [Example 204, 5-(((5-fluoro-2,3-dihydrobenzofuran-4-yl)methyl)amino)-8-(4-(pyrrolidin-2-yl)phenyl)imidazo[1,2-c]pyrimidine-2-carbonitrile] showed an IC50 of 100 to 500 nM.

Compound `CCOc1ncccc1-c1cnc(NCc2c(F)ccc3c2CCO3)n2cc(C#N)nc12` [Example 124, 8-(2-ethoxypyridin-3-yl)-5-(((5-fluoro-2,3-dihydrobenzofuran-4-yl)methyl)amino)imidazo[1,2-c]pyrimidine-2-carbonitrile] gave an IC50 of less than 100 nM.

As to `N#Cc1cn2c(NCc3c(F)ccc4c3CCO4)ncc(-c3ccccc3)c2n1` [Example 46, 5-(((5-fluoro-2,3-dihydrobenzofuran-4-yl)methyl)amino)-8-phenylimidazo[1,2-c]pyrimidine-2-carbonitrile], the 50% inhibitory concentration (IC50) was less than 100 nM.

Consider `COc1cc(-c2cnc(NCc3c(F)ccc4c3CCO4)n3cc(C#N)nc23)ccn1` [Example 113, 5-(((5-fluoro-2,3-dihydrobenzofuran-4-yl)methyl)amino)-8-(2-methoxypyridin-4-yl)imidazo[1,2-c]pyrimidine-2-carbonitrile], for which the IC50 is less than 100 nM.

With `CN(C)C(=O)c1c(F)cc(-c2cnc(NCc3c(F)ccc4c3CCO4)n3cc(C#N)nc23)cc1F` [Example 45, 4-(2-cyano-5-(((5-fluoro-2,3-dihydrobenzofuran-4-yl)methyl)amino)imidazo[1,2-c]pyrimidin-8-yl)-2,6-difluoro-N,N-dimethylbenzamide], the IC50 was less than 100 nM.

In turn, `N#Cc1cn2c(NCc3c(F)ccc4c3CCO4)ncc(-c3ccc(CN4CC(O)C4)cc3)c2n1` [Example 150, 5-(((5-fluoro-2,3-dihydrobenzofuran-4-yl)methyl)amino)-8-(4-((3-hydroxyazetidin-1-yl)methyl)phenyl)imidazo[1,2-c]pyrimidine-2-carbonitrile] gave an IC50 of less than 100 nM.

For `N#Cc1cn2c(NCc3c(F)ccc4c3CCO4)ncc(-c3ccc(C4CCN4)cc3)c2n1` (stereo not drawn) [Example 226, 8-(4-(azetidin-2-yl)phenyl)-5-(((5-fluoro-2,3-dihydrobenzofuran-4-yl)methyl)amino)imidazo[1,2-c]pyrimidine-2-carbonitrile], the IC50 is 100 to 500 nM.

For `N#Cc1cn2c(NCc3c(F)ccc4c3CCO4)ncc(-c3cnn(CC4CCOC4)c3)c2n1` (stereo not drawn) [Example 154, 5-(((5-fluoro-2,3-dihydrobenzofuran-4-yl)methyl)amino)-8-(1-((tetrahydrofuran-3-yl)methyl)-1H-pyrazol-4-yl)imidazo[1,2-c]pyrimidine-2-carbonitrile], the IC50 fell in the range of 100 to 500 nM.

For the compound `Cn1nc(C(F)(F)F)cc1-c1cnc(NCc2c(F)ccc3c2CCO3)n2cc(C#N)nc12` [Example 111, 5-(((5-fluoro-2,3-dihydrobenzofuran-4-yl)methyl)amino)-8-(1-methyl-3-(trifluoromethyl)-1H-pyrazol-5-yl)imidazo[1,2-c]pyrimidine-2-carbonitrile], the IC50 is less than 100 nM.

As to `N#Cc1cn2c(NCc3c(F)ccc4c3CCO4)ncc(-c3ccccc3C#N)c2n1` [Example 187, 8-(2-cyanophenyl)-5-(((5-fluoro-2,3-dihydrobenzofuran-4-yl)methyl)amino)imidazo[1,2-c]pyrimidine-2-carbonitrile], the 50% inhibitory concentration (IC50) is less than 100 nM.

`CN(C)Cc1ccc(-c2cnc(NCc3c(F)ccc4c3CCO4)n3cc(C#N)nc23)c(Cl)c1` [Example 33, 8-(2-chloro-4-((dimethylamino)methyl)phenyl)-5-(((5-fluoro-2,3-dihydrobenzofuran-4-yl)methyl)amino)imidazo[1,2-c]pyrimidine-2-carbonitrile] gave an IC50 of less than 100 nM.

(Values after patent US20240398811A1, “PRC2 INHIBITORS FOR USE IN TREATING BLOOD DISORDERS” (ORIC Pharmaceuticals, Inc., priority 2021, published 2024).)
